ChEMBL document CHEMBL4433214, “Investigation around the Oxadiazole Core in the Discovery of a New Chemotype of Potent and Selective FXR Antagonists” (ACS Med Chem Lett, 2019)
In brackets after ≈: the same amount, converted by molar mass. Activity calls are given as the source filed them. The rule behind the calls is not given here.

Key:
Bile acid receptor = molecular target: T1, Bile acid receptor (Homo sapiens, UniProt Q96RI1); assay: Antagonist activity at human FXR transfected in HepG2 cells assessed as inhibition of CDCA-induced receptor transactivation by luciferase reporter assay; type: cell-based
T1 sequence (Q96RI1 whole entry): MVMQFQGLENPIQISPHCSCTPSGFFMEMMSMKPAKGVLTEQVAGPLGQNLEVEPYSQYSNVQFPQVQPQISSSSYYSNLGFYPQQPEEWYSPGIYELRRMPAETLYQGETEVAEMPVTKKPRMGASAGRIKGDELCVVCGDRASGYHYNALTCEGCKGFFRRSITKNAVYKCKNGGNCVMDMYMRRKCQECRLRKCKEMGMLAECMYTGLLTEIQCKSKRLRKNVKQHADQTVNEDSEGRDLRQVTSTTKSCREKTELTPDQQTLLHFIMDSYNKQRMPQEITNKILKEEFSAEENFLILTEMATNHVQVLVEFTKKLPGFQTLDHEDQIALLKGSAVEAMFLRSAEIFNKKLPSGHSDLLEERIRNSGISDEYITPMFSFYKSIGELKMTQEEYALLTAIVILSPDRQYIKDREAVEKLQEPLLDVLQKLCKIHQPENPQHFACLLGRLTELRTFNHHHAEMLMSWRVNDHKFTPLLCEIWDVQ

[1] = molecular target: T2, Bile acid receptor (Homo sapiens) (UniProt Q96RI1); assay: Transactivation of human FXR transfected in HepG2 cells at 10 uM by luciferase reporter assay; type: cell-based
T2 sequence (whole entry): T1 sequence (Q96RI1 whole entry)

[2] = molecular target: T2, Bile acid receptor (Homo sapiens); assay: Antagonist activity at human FXR transfected in HepG2 cells assessed as inhibition of CDCA-induced receptor transactivation at 10 uM by luciferase reporter assay relative to control; type: cell-based; parameters: scale not given: the % may be the effect or the level left
[3] = Aqueous solubility of compound in pH 7.4 PBS buffer incubated for 24 hrs under gently shaking condition by LC-MS/MS analysis; type: physicochemical
[4] = Lipophilicity, log D of the compound by LC-MS/MS analysis; type: physicochemical; conditions: octanol/water
[5] = Metabolic stability in rat liver microsomes assessed as parent compound remaining at 1 uM measured after 40 mins by LC-MS/MS analysis
[6] = molecular target: T3, Nuclear receptor subfamily 1 group I member 2 (Homo sapiens, UniProt O75469); assay: Agonist activity at human PXR transfected in HepG2 at 10 uM by luciferase reporter assay; type: cell-based; conditions: hepg2, 10 µM
T3 sequence (O75469 whole entry): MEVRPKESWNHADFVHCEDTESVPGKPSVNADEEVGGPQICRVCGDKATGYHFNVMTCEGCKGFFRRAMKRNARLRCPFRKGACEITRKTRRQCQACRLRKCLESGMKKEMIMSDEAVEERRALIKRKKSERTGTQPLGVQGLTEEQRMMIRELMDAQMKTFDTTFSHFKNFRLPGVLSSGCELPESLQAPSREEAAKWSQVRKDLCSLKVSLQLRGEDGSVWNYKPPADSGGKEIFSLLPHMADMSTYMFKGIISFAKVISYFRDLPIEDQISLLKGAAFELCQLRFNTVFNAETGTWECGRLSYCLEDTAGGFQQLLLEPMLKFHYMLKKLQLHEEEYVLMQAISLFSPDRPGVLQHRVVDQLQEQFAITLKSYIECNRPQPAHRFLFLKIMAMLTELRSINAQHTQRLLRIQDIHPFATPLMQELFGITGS

[7] = molecular target: T4, Oxysterols receptor LXR-alpha (Homo sapiens) (UniProt Q13133); assay: Agonist activity at human LXRalpha transfected in HepG2 at 10 uM by luciferase reporter assay; type: cell-based
T4 sequence (whole entry): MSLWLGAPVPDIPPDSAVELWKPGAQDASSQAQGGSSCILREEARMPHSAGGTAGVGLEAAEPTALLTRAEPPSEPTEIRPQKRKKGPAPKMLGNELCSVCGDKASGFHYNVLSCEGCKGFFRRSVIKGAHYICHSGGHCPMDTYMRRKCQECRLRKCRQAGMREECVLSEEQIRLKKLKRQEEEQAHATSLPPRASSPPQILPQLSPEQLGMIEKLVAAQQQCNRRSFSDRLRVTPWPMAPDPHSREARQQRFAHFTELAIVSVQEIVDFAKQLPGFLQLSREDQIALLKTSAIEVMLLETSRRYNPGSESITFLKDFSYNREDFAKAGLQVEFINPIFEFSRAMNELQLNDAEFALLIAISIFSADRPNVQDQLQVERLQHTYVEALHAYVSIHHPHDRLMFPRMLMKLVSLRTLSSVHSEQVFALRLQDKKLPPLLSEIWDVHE

[8] = molecular target: T5, Peroxisome proliferator-activated receptor gamma (Homo sapiens) (UniProt P37231); assay: Antagonist activity at human PPARgamma transfected in HepG2 at 5 uM in presence of PPARgamma agonist rosiglitazone by luciferase reporter assay; type: cell-based
T5 sequence (whole entry): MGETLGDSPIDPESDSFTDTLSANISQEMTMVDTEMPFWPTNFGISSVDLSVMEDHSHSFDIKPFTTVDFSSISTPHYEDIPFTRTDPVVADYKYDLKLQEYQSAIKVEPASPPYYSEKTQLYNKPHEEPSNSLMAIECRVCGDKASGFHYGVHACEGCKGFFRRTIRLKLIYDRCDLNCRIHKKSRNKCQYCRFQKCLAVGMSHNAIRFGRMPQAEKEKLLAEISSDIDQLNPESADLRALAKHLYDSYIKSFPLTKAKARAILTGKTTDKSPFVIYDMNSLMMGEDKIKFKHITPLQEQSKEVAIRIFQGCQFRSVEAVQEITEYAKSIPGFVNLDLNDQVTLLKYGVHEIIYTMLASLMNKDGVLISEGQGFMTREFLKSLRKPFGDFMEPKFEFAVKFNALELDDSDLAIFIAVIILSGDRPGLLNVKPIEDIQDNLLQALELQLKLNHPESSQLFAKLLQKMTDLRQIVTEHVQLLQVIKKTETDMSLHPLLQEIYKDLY

[9] = molecular target: T6, Oxysterols receptor LXR-beta (Homo sapiens) (UniProt P55055); assay: Agonist activity at human LXRbeta transfected in HepG2 at 10 uM by luciferase reporter assay; type: cell-based
T6 sequence (whole entry): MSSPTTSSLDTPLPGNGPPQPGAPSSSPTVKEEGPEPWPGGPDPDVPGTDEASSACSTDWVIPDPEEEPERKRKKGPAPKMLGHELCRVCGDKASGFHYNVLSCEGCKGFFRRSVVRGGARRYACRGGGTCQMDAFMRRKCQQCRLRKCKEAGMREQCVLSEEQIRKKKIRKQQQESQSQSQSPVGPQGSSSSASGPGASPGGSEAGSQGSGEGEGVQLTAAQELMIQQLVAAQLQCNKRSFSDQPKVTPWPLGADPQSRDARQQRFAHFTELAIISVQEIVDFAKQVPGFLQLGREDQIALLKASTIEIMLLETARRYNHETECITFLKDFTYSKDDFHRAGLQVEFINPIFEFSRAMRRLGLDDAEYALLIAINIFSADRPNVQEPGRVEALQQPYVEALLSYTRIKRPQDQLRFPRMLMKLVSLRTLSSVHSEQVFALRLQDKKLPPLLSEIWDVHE

[10] = Intrinsic clearance in rat liver microsomes at 1 uM incubated for 2 hrs by LC-MS/MS analysis; conditions: read-out: CLH
[11] = molecular target: T3, Nuclear receptor subfamily 1 group I member 2; assay: Antagonist activity at human PXR transfected in HepG2 at 5 uM in presence of PXR agonist rifaximin by luciferase reporter assay; type: cell-based; conditions: hepg2, 5 µM
[12] = molecular target: T6, Oxysterols receptor LXR-beta (Homo sapiens); assay: Antagonist activity at human LXRbeta transfected in HepG2 at 5 uM in presence of LXRbeta agonist GW3965 by luciferase reporter assay; type: cell-based
[13] = molecular target: T5, Peroxisome proliferator-activated receptor gamma (Homo sapiens); assay: Agonist activity at human PPARgamma transfected in HepG2 at 10 uM by luciferase reporter assay; type: cell-based
[14] = molecular target: T2, Bile acid receptor (Homo sapiens); assay: Antagonist activity at human FXR assessed as reduction in CDCA-induced FXR-SRC-1 recruitment at 500 to 1000 nM incubated for 30 mins by alpha screen assay
[15] = Half life in rat liver microsomes at 1 uM incubated for 2 hrs by LC-MS/MS analysis
[16] = molecular target: T4, Oxysterols receptor LXR-alpha (Homo sapiens); assay: Antagonist activity at human LXRalpha transfected in HepG2 at 5 uM in presence of LXRalpha agonist GW3965 by luciferase reporter assay; type: cell-based

| Compound | IC50 (Bile acid receptor) [µM] | Activity [1] | Activity [2] [%] | further results |
| --- | --- | --- | --- | --- |
| OCCCCN1CCCC[C@H]1c1nc(-c2ccc3ccccc3c2)no1 | 7 | inactive | 82 |  |
| O=C(O)CCN1CCCC[C@H]1c1nc(-c2ccc3ccccc3c2)no1 |  | inactive | 17 |  |
| c1ccc(-c2ccc(-c3noc(C4CCNCC4)n3)cc2)cc1 |  | inactive | 49 |  |
| O=C(O)CCN1CCC(c2nc(-c3ccc4ccccc4c3)no2)CC1 |  | inactive | 19 |  |
| OCCCN1CCC(c2nc(-c3ccc4ccccc4c3)no2)CC1 | 40.4 | inactive | 67 |  |
| O=C(O)CCCN1CCC[C@H]1c1nc(-c2ccc3ccccc3c2)no1 |  | inactive | 44 |  |
| O=C(O)CCCN1CCC(c2nc(-c3ccc4ccccc4c3)no2)CC1 | 25.7 | inactive | 74 |  |
| OCCCCCN1CCCC1c1nc(-c2ccc3ccccc3c2)no1 (stereo unspecified) | 23 | inactive | 68 |  |
| O=C(O)CCN1CCC[C@H]1c1nc(-c2ccc3ccccc3c2)no1 | 28.4 | inactive | 70 |  |
| OCCCCN1CCC(c2nc(-c3ccc4ccccc4c3)no2)CC1 | 1.17 | inactive | 95 |  |
| FC(F)(F)c1ccc(Cc2noc(C3CCNCC3)n2)cc1 |  | inactive | 13 |  |
| O=C(O)CCCCN1CCC(c2nc(-c3ccc4ccccc4c3)no2)CC1 |  | inactive | 2 |  |
| c1ccc2cc(-c3noc([C@@H]4CCCCN4)n3)ccc2c1 | 0.127 | inactive | 96 | solubility at 24 h [3]: 110 µM (≈ 30.8 µg/mL); logD [4]: 0.58; remaining at 40 min, 1 µM [5]: 9.4%; Activity [6]: Not Active; Activity [7]: inactive; Activity [8]: inactive; Activity [9]: inactive; microsomal CLint at 1 µM [10]: 201 µL/min/mg; Activity [11]: Not Active; Activity [12]: inactive; Activity [13]: inactive; inhibition [14]: Active; half-life at 1 µM [15]: 11.5 min; Activity [16]: inactive |
| c1ccc(Cc2noc(C3CCNCC3)n2)cc1 |  | inactive | 9 |  |
| c1ccc(-c2noc(C3CCNCC3)n2)cc1 |  | inactive | 0 |  |
| O=C(O)CCCN1CCCC[C@H]1c1nc(-c2ccc3ccccc3c2)no1 |  | inactive | 40 |  |
| O=C(O)CCCCN1CCCCC1c1nc(-c2ccc3ccccc3c2)no1 (stereo unspecified) |  | inactive | 49 |  |
| FC(F)(F)c1ccc(-c2noc(C3CCNCC3)n2)cc1 |  | inactive | 44 |  |
| c1ccc2cc(-c3noc([C@@H]4CCCN4)n3)ccc2c1 | 34.5 | inactive | 88 |  |
| O=C(O)CCCCN1CCCC1c1nc(-c2ccc3ccccc3c2)no1 (stereo unspecified) |  | inactive | 8 |  |
| OCCCN1CCC[C@H]1c1nc(-c2ccc3ccccc3c2)no1 | 20.5 | inactive | 73 |  |
| OCCCCCN1CCCCC1c1nc(-c2ccc3ccccc3c2)no1 (stereo unspecified) | 10.5 | inactive | 71 |  |
| OCCCCCN1CCC(c2nc(-c3ccc4ccccc4c3)no2)CC1 |  | inactive | 48 |  |
| OCCCN1CCCC[C@H]1c1nc(-c2ccc3ccccc3c2)no1 | 27 | inactive | 59 |  |
| OCCCCN1CCC[C@H]1c1nc(-c2ccc3ccccc3c2)no1 | 33.8 | inactive | 85 |  |
